This passage reports K inact and Ki results from ChEMBL document CHEMBL1152070, “-cyano-substituted analogoues of decarboxylated S-adenosylmethionine as enzyme activated, irreversible inhibitors of S-adenosylmethionine decarboxylase” (Bioorg Med Chem Lett, 1993).

The target in experiment [1] is T1, S-adenosylmethionine decarboxylase proenzyme (Homo sapiens) (UniProt P17707).
T1 sequence (whole entry): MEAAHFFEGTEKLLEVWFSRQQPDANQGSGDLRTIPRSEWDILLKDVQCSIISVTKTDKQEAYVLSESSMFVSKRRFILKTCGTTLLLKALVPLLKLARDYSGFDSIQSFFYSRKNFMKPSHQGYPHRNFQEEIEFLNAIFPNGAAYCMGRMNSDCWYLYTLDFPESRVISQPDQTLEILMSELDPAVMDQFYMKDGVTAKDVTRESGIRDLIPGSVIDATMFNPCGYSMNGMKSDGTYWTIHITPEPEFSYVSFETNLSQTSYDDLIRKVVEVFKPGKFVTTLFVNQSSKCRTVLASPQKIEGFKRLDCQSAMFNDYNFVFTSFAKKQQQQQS
Description: Compound was evaluated for Enzyme kinetic inactivation constant: Kinact for S-Adenosyl-methionine decarboxylase (AdoMet-DC) enzyme.

Experiment [2] deals with T2, S-adenosylmethionine decarboxylase proenzyme (Homo sapiens, UniProt P17707).
T2 sequence (P17707 whole entry): T1 sequence (whole entry)
The experiment is described as follows: Compound was evaluated to inactivate the human AdoMet-DC.

`C[S+](CCCC(N)C#N)C[C@H]1O[C@@H](n2cnc3c(N)ncnc32)[C@H](O)[C@@H]1O` (stereo not given in full) had a K inact in experiment [1] of 0.03 min⁻¹. This compound also returned a Ki in experiment [2] of 7.2 µM.
Take `C[S+](CCC(N)C#N)C[C@H]1O[C@@H](n2cnc3c(N)ncnc32)[C@H](O)[C@@H]1O` (stereo not given in full): the K inact in experiment [1] turned out to be 0.29 min⁻¹; in experiment [1] (Escherichia coli) it was 0.06 min⁻¹. In addition, the Ki in experiment [2] worked out at 247 µM.
